Patent US9662059B2, “Imaging agents for monitoring changes of dopamine receptors and methods of using thereof” (The Regents of the University of California, priority 2007, dated 2017)
“Also recorded” adds a separate entry of the source.

What was measured:
dopamine D2/D3 receptors = assay: human PET/CT imaging with ^18F-fallypride, standard uptake values in organs; type: in vivo; conditions: normal human subject
Experimental: The subjects were prepared by intravenous administration of ^18F-fallypride. After 80 minutes, the subjects were then positioned in the Siemen's PET/CT Biograph. The subjects were requested to lay still during the PET/CT data acquisition in the dimly lit quiet room but were free to open/shut their eyes. Static scans of 10 mins duration each were acquired at different bed positions.
The reconstructed dynamic PET data sets were first realigned to a reference summed image (50-80 minutes) to correct for patient motion and slight differences in positioning between the dynamic scans. These dynamic data sets were then used to create time-activity curves as well as pixel-by-pixel parametric images of the distribution volume ratio (DVR). The cerebellum (cerebellar lobes) was chosen as the reference region, having a minimal amount of specific binding to dopaminergic sites. The PET/CT data was analyzed to provide standard uptake values (SUV) in different organs which were identified using the CT image.

D2R [1] = molecular target: T1, D2R (Homo sapiens, UniProt P14416); assay: human PET imaging of the pancreas region with whole body HR+ PET scanner; type: in vivo; conditions: healthy volunteer, 80 mins post injection
T1 construct: from tissue; host or cells: pancreas region of a healthy human volunteer, in vivo
Experimental: The subjects were prepared by placing one intravenous catheter in one arm for administration of the ^18F-fallypride. The subjects were then positioned in the PET scanner, and their alignment was marked for purposes of repositioning. The subjects were requested to lay still during the PET data acquisition in the dimly lit quiet room but were free to open/shut their eyes. The PET data was acquired with an EXACT HR+ PET scanner (in-plane FWHM=4.6 mm, axial FWHM=3.5 mm, axial FOV=15.52 cm). A 5-minute transmission scan using ^68Ge/^68Ga rod sources was acquired prior to administration of the radiopharmaceutical. Scanning was initiated with a 30-second bolus infusion of the radiopharmaceutical followed by a saline flush. A ^18F-fallypride dose of approximately 0.07 mCi/kg was administered to each of the subjects (subjects weight ranged between 70 to 95 kg). The dynamic scanning sequence consisted of 6 frames at 30 seconds, 7 frames at 1 minute, 5 frames at 2 minutes, 4 frames at 5 minutes and 4 frames at 10 minutes. The subject was marked for repositioning and then removed from the scanner for a 20-minute break period. A second dynamic sequence with 8 frames at 10 minutes each was acquired, yielding a total study time of approximately 3 hours. The data set was reconstructed using the ECAT v 7.2 software, with an OSEM algorithm (3 iterations, 16 subsets). […]

D2/D3 receptors = conditions: cited from earlier work
[2] = arterial blood plasma at 3 hr; cited from earlier work
D2R [3] = molecular target: T2, D2R (Rattus norvegicus, UniProt P61169); assay: in vitro autoradiography of ^18F-fallypride binding in rat pancreas sections; parameters: from tissue; host or cells: rat pancreas, 10 μm cryosections
Experimental: Male Sprague-Dawley rats (200-250 g) or male Lewis rats (100-150 g) were anesthetized and decapitated. The brain and pancreas was rapidly removed and frozen in isopentane at −20° C. […] Slices were stored at −20° C. Slices were preincubated for 10 minutes in 50 mM Tris-HCl, 120 mM NaCl, 5 mM KCl buffer (pH 7.4). Slices were then incubated with 1-2 μCi/cc of ^18F-fallypride at 37° C. for 1 hour. […] After incubation, slices were rinsed twice for 2 min in ice-cold buffer, dipped briefly in ice-cold water, blown dry and laid out for autoradiography. Slides with tissue samples were exposed to a multipurpose storage phosphor screen for 24 hours and developed; the autoradiographs were generated using the Phosphor Cyclone Imager (Packard Instruments Co.) The amount of binding in the pancreas was measured as digital light units, DLU/mm^2. Autoradiographs were quantified using a computer-based image analysis system (OptiQuant Version 4.0 Packard Instruments Co., Boston Mass.).

D2R [4] = molecular target: T2, D2R; assay: ^18F-fallypride binding to pancreatic and brain sections of control and streptozotocin-treated rats; parameters: from tissue; host or cells: pancreas, striatum and cerebellum sections of male Sprague-Dawley rats; species or system male Sprague-Dawley rats
Experimental: Male Sprague-Dawley rats were used to develop a model for diabetes. Streptozotocin (STZ) (80 mg/kg body weight, i.p. injection) chemically destroyed beta-cells and induced diabetes in adult male Sprague-Dawley rats (Lai et al., Am J Physiol Endocrinol Metab 2007 292:E292). Blood glucose was monitored by tail vein-sampling. Diabetic rats were harvested 7 days after the onset of diabetes. ^18F-fallypride binding to pancreatic and brain sections was done for three pairs of STZ- and age-matched rats. […] Specific binding was determined for each animal by subtracting nonspecific binding, measured in digital light units per mm^2 (DLU/mm^2), from total binding for adjacent tissue sections in brain and pancreas.

D2R [5] = molecular target: T2, D2R; assay: ex vivo autoradiography of brain and pancreas after intravenous ^18F-fallypride; type: in vivo, Lewis rats; parameters: The brain and pancreas were isolated and sectioned to 10 μm and 40 μm sections; from tissue; host or cells: brain (striata, cerebellum) and pancreas of living Lewis rats
Experimental: For ex vivo studies, Lewis rats were anesthetized with halothane and injected intravenously with ^18F-fallypride (0.1 to 0.2 mCi). The rats were then sacrificed at either 60 or 120 min post-injection. The brain and pancreas were isolated and sectioned to 10 μm and 40 μm sections. Slides with tissue samples were exposed to a multipurpose storage phosphor screen for 24 hours and developed; the autoradiographs were generated using the Phosphor Cyclone Imager (Packard Instruments Co.). Brain slices contained the striata, cerebellum and other regions known to contain D2R. The amount of binding to the striata, cerebellum and pancreas was measured as digital light units, DLU/mm^2. Autoradiographs were quantified using a computer-based image analysis system (OptiQuant Version 4.0 Packard Instruments Co., Boston Mass.).

[6] = rat killed at 60 min post-injection

T2 sequence (P61169 whole entry): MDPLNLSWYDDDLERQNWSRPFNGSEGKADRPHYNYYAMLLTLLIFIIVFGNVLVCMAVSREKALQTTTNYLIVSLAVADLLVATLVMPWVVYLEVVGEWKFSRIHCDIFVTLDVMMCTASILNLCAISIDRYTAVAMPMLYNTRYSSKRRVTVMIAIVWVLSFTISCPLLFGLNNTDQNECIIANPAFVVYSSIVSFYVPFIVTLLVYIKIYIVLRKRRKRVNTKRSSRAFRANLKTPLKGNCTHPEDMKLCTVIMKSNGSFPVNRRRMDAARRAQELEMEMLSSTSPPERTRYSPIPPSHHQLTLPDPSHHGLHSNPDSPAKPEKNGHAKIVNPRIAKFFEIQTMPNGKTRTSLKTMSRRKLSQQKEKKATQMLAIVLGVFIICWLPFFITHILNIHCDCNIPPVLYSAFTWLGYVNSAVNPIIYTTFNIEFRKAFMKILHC
T1 sequence (P14416 whole entry): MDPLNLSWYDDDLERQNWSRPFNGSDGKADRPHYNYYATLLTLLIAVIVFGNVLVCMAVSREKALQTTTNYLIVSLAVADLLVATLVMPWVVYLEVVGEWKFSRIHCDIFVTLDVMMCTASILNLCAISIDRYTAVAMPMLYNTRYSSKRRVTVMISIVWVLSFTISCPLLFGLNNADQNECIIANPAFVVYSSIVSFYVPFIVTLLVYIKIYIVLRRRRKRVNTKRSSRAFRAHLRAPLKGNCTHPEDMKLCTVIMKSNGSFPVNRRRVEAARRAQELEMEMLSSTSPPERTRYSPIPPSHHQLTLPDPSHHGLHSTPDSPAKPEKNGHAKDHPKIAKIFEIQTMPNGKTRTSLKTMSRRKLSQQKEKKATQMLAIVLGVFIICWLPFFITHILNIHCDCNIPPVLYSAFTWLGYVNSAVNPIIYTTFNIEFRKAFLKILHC

Compound: C=CCN1CCC[C@H]1CNC(=O)c1cc(CCC[18F])cc(OC)c1OC [^18F-fallypride]
- Ratio Organ/Ant Abd muscle, Pancreas- Body (dopamine D2/D3 receptors): 2.83
- Ratio Organ/Ant Abd muscle, Pancreas- Head (dopamine D2/D3 receptors): 2.73
- Ratio Organ/Ant Abd muscle, Pancreas- Tail (dopamine D2/D3 receptors): 3.10
- SUV, Anterior Abdominal Muscle (dopamine D2/D3 receptors): 0.6
- SUV, Gall bladder (dopamine D2/D3 receptors): 123
- SUV, Kidney (dopamine D2/D3 receptors): 2.2
- SUV, Liver (dopamine D2/D3 receptors): 5.0
- SUV, Liver left lobe (dopamine D2/D3 receptors): 4.9
- SUV, Liver right lobe (dopamine D2/D3 receptors): 5.1
- SUV, Lung (dopamine D2/D3 receptors): 1.1
- SUV, Pancreas- Body (dopamine D2/D3 receptors): 1.7
- SUV, Pancreas- Head (dopamine D2/D3 receptors): 1.64
- SUV, Pancreas- Tail (dopamine D2/D3 receptors): 1.86
- SUV, Psoas Muscle (dopamine D2/D3 receptors): 0.9
- SUV, Spine (bone marrow) (dopamine D2/D3 receptors): 2.8
- SUV, Spleen (dopamine D2/D3 receptors): 1.5
- Uptake of ^18F-fallypride in the human pancreas (D2R [1]): comparable with that in the brain
- decrease in binding with aging, all brain regions (D2/D3 receptors; human brain): > 10 % per decade
- BP, orbitofrontal cortex (D2/D3 receptors; younger subject): 0.4
- BP, putamen (D2/D3 receptors; younger subject): 37
- plasma radioactivity that was ^18F-fallypride [2]: 30-40%
- ^18F-fallypride binding to rat pancreatic sections (D2R [3]; 10 μm sections, 37° C., 1 hour): binds to rat pancreatic sections
- ^18F-Fallypride binding, Cerebellum (D2R [4]; Control rats): 1597 ± 1382 DLU/mm^2
- ^18F-Fallypride binding, Pancreas (D2R [4]; Control rats): 1393 ± 479 DLU/mm^2
- ^18F-Fallypride binding, Striatum (D2R [4]; Control rats): 121,167 ± 41,190 DLU/mm^2
- change in ^18F-fallypride binding to control tissues striatum and cerebellum (D2R [4]; STZ-treated rats vs control): no change
- reduction of specific ^18F-fallypride binding in the pancreas (D2R [4]; STZ-treated rats vs control, p<0.05): ~70%
- ^18F-Fallypride binding, Cerebellum (D2R [4]; Streptozotocin-treated rats): 1119 ± 632 DLU/mm^2
- ^18F-Fallypride binding, Striatum (D2R [4]; Streptozotocin-treated rats): 112,059 ± 35,271 DLU/mm^2
- ^18F-Fallypride binding, Pancreas (D2R [4]; Streptozotocin-treated rats, p < 0.05): 310 ± 303 DLU/mm^2
- binding in the pancreas (D2R [5]; Rat #2 killed at 120 min): significant amount of binding
- Ratio of pancreas to cerebellum (D2R [5]; [6]): 5.3
- Ratio of striatum to cerebellum (D2R [5]; [6]): 55.3

Compound: NCCc1ccc(O)c(O)c1 [Dopamine]
- displacement of ^18F-fallypride binding to the pancreas (D2R [3]; rat pancreatic sections, competitor 100 μM): does not displace; also recorded: did not displace
